Test results reported in ChEMBL document CHEMBL4049391, “Vicinal diaryl azole-based urea derivatives as potential cholesterol lowering agents acting through inhibition of SOAT enzymes” (Eur J Med Chem, 2017).
The source made the active and inactive calls. No cut-off for these calls is given here.

Key:
[1] = Inhibition of rat microsomal SOAT assessed as reduction in cholesteryl oleate formation from oleoyl co-enzyme A pretreated for 15 mins followed by oleoyl co-enzyme A addition after 10 mins by HPTLC method
Rattus norvegicus [2] = assay: Anti-hypercholesterolemic activity in poloxamer-407-induced Wistar rat lipoprotein lipase inhibition model assessed as fold change in triglyceride level at 20 mg/kg administered as single dose via oral gavage pretreated for 4 hrs followed by poloxamer-407 induction measured over 24 hrs (reference value: 80); format: functional
Rattus norvegicus [3] = assay: Anti-atherosclerosis activity in po dosed high cholesterol diet-induced Wistar rat atherogenesis model assessed as reduction in serum total cholesterol level administered once daily measured after 4 weeks; format: functional, organism-based
Rattus norvegicus [4] = assay: Anti-atherosclerosis activity in po dosed high cholesterol diet-induced Wistar rat atherogenesis model assessed as increase in HDL-cholesterol level administered once daily measured after 4 weeks; format: functional, organism-based
Rattus norvegicus [5] = assay: Anti-atherosclerosis activity in high cholesterol diet-induced Wistar rat atherogenesis model assessed as atherogenic index at 10 mg/kg, po administered once daily measured after 4 weeks (reference value: 19.59 +/- 5.8); format: functional
Rattus norvegicus [6] = assay: Anti-atherosclerosis activity in high cholesterol diet-induced Wistar rat atherogenesis model assessed as atherogenic index at 30 mg/kg, po administered once daily measured after 4 weeks (reference value: 19.59 +/- 5.8); format: functional
Rattus norvegicus [7] = assay: Toxicity in Wistar rat assessed as effect on body weight at 10 mg/kg, po administered once daily measured after 4 weeks (reference value: 290.3 +/- 8.1 g); format: organism-based; conditions: in vivo, 672 h
Rattus norvegicus [8] = assay: Toxicity in Wistar rat assessed as effect on body weight at 30 mg/kg, po administered once daily measured after 4 weeks (reference value: 290.3 +/- 8.1 g); format: organism-based; conditions: in vivo, 672 h
Rattus norvegicus [9] = assay: Anti-atherosclerosis activity in high cholesterol diet-induced Wistar rat atherogenesis model assessed as lipid accumulation lesion area in thoracic aorta at 30 mg/kg, po administered once daily measured after 4 weeks by Sudan red 4 staining based photographic method relative to control; format: functional
Rattus norvegicus [10] = assay: Anti-atherosclerosis activity in high cholesterol diet-induced Wistar rat atherogenesis model assessed as lipid accumulation lesion area in thoracic aorta at 10 mg/kg, po administered once daily measured after 4 weeks by Sudan red 4 staining based photographic method (reference value: 22.35 +/- 7.9%); format: functional
Rattus norvegicus [11] = assay: Anti-atherosclerosis activity in high cholesterol diet-induced Wistar rat atherogenesis model assessed as reduction in LDL-cholesterol level at 30 mg/kg, po administered once daily measured after 4 weeks; format: functional, organism-based
Rattus norvegicus [12] = assay: Anti-atherosclerosis activity in high cholesterol diet-induced Wistar rat atherogenesis model assessed as reduction in fatty streak formation in thoracic aorta at 10 mg/kg, po administered once daily measured after 4 weeks by Sudan red 4 staining based photographic method; format: functional, organism-based
Rattus norvegicus [13] = assay: Anti-atherosclerosis activity in high cholesterol diet-induced Wistar rat atherogenesis model assessed as reduction in fatty streak formation in thoracic aorta at 30 mg/kg, po administered once daily measured after 4 weeks by Sudan red 4 staining based photographic method; format: functional, organism-based
Rattus norvegicus [14] = assay: Anti-atherosclerosis activity in high cholesterol diet-induced Wistar rat atherogenesis model assessed as reduction in lumenal lipid plaque formation in aortic roots at 10 to 30 mg/kg, po administered once daily measured after 4 weeks by Sudan red 4 staining based photographic method; format: functional, organism-based
Rattus norvegicus [15] = assay: Toxicity in Wistar rat assessed as cutaneous toxicity at 10 to 30 mg/kg, po administered once daily measured after 4 weeks; format: organism-based; conditions: in vivo, 672 h
Rattus norvegicus [16] = assay: Toxicity in Wistar rat assessed as adrenal toxicity at 10 to 30 mg/kg, po administered once daily measured after 4 weeks; format: organism-based; conditions: in vivo, 672 h
Rattus norvegicus [17] = assay: Acute toxicity in Wistar rat assessed as change in body weight at 2000 mg/kg, po administered as single dose measured at 6 hrs post dose; format: organism-based; conditions: in vivo
Rattus norvegicus [18] = assay: Acute toxicity in Wistar rat assessed as effect on water intake at 2000 mg/kg, po administered as single dose measured at 6 hrs post dose; format: organism-based; conditions: in vivo
Rattus norvegicus [19] = assay: Acute toxicity in Wistar rat assessed as effect on skin color at 2000 mg/kg, po administered as single dose measured up to 14 days; format: organism-based; conditions: in vivo, 336 h
Rattus norvegicus [20] = assay: Acute toxicity in Wistar rat assessed as effect on fur color at 2000 mg/kg, po administered as single dose measured up to 14 days; format: organism-based; conditions: in vivo, 336 h
Rattus norvegicus [21] = assay: Acute toxicity in Wistar rat assessed as effect on locomotion at 2000 mg/kg, po administered as single dose measured up to 14 days; format: organism-based; conditions: in vivo, 336 h
Rattus norvegicus [22] = assay: Acute toxicity in Wistar rat assessed as changes in eyes at 2000 mg/kg, po administered as single dose measured up to 14 days; format: organism-based; conditions: in vivo, 336 h
[23] = Acute toxicity in Wistar rat assessed as mortality administered orally as single dose measured up to 14 days; conditions: in vivo, po, read-out: CD50
Rattus norvegicus [24] = assay: Acute toxicity in Wistar rat assessed as effect on viscera at 2000 mg/kg, po administered as single dose measured up to 14 days; format: organism-based; conditions: in vivo, 336 h
Rattus norvegicus [25] = assay: Acute toxicity in Wistar rat assessed as macroscopic lesions in liver at 2000 mg/kg, po administered as single dose measured up to 14 days; format: organism-based; conditions: in vivo, 336 h
Rattus norvegicus [26] = assay: Acute toxicity in Wistar rat assessed as macroscopic lesions in adrenal gland at 2000 mg/kg, po administered as single dose measured up to 14 days; format: organism-based; conditions: in vivo, 336 h
Rattus norvegicus [27] = assay: Acute toxicity in Wistar rat assessed as effect on mucus of lungs at 2000 mg/kg, po administered as single dose measured up to 14 days; format: organism-based; conditions: in vivo, 336 h
Rattus norvegicus [28] = assay: Acute toxicity in Wistar rat assessed as macroscopic lesions in kidney at 2000 mg/kg, po administered as single dose measured up to 14 days; format: organism-based; conditions: in vivo, 336 h
Rattus norvegicus [29] = assay: Acute toxicity in Wistar rat assessed as macroscopic lesions in spleen at 2000 mg/kg, po administered as single dose measured up to 14 days; format: organism-based; conditions: in vivo, 336 h
Rattus norvegicus [30] = assay: Acute toxicity in Wistar rat assessed as changes in adrenal gland shape at 2000 mg/kg, po administered as single dose measured up to 14 days; format: organism-based; conditions: in vivo, 336 h
Rattus norvegicus [31] = assay: Acute toxicity in Wistar rat assessed as shrinkage of adrenal gland at 2000 mg/kg, po administered as single dose measured up to 14 days; format: organism-based; conditions: in vivo, 336 h
Rattus norvegicus [32] = assay: Acute toxicity in Wistar rat assessed as effect on food intake at 60 mg/kg, po administered as repeated dosing for 28 days; format: organism-based; conditions: in vivo, 672 h
Rattus norvegicus [33] = assay: Acute toxicity in Wistar rat assessed as effect on normal behavior at 60 mg/kg, po administered as repeated dosing for 28 days; format: organism-based; conditions: in vivo, 672 h
Rattus norvegicus [34] = assay: Acute toxicity in Wistar rat assessed as cutaneous xanthomatosis at 60 mg/kg, po administered as repeated dosing for 42 days; format: organism-based; conditions: in vivo, 1008 h
Rattus norvegicus [35] = assay: Acute toxicity in Wistar rat assessed as effect on urinary excretion at 60 mg/kg, po administered as repeated dosing for 28 days; format: organism-based; conditions: in vivo, 672 h
Rattus norvegicus [36] = assay: Acute toxicity in Wistar rat assessed as hematological changes at 60 mg/kg, po administered as repeated dosing for 28 days; format: organism-based; conditions: in vivo, 672 h
Rattus norvegicus [37] = assay: Acute toxicity in Wistar rat assessed as macroscopic lesions in brain at 2000 mg/kg, po administered as single dose measured up to 14 days; format: organism-based; conditions: in vivo, 336 h

With `CCCCNC(=O)Nc1ccc(-c2sc(C)nc2-c2ccc(C)cc2)cc1` the IC50 [1] was 2430 nM, the pIC50 [1] was 5.614 and the “fold change (FC)” value (Rattus norvegicus [2]) was 20. The Activity (Rattus norvegicus [3]) was “Dose-dependent effect”, the Activity (Rattus norvegicus [4]) was “Dose-dependent effect” and the Activity_index (Rattus norvegicus [5]) was 7.55. The Activity_index (Rattus norvegicus [6]) was 1.82, the Activity (Rattus norvegicus [7]) was 294 g and the Activity (Rattus norvegicus [8]) was 299 g. For the same compound, the “fold change (FC)” value (Rattus norvegicus [9]) was 3, the Activity (Rattus norvegicus [10]) was 16.21% and the Activity (Rattus norvegicus [11]) was “Active”. The Activity (Rattus norvegicus [12]) was “inactive”, the Activity (Rattus norvegicus [13]) was “Active” and the Activity (Rattus norvegicus [14]) was “Active”. For the same compound, the Activity (Rattus norvegicus [15]) was “Non-Toxic”, the Activity (Rattus norvegicus [16]) was “Non-Toxic” and the Activity (Rattus norvegicus [17]) was “Non-Toxic”. The Activity (Rattus norvegicus [18]) was “Non-Toxic”, the Activity (Rattus norvegicus [19]) was “Non-Toxic” and the Activity (Rattus norvegicus [20]) was “Non-Toxic”. The Activity (Rattus norvegicus [21]) was “Non-Toxic”, the Activity (Rattus norvegicus [22]) was “Non-Toxic” and the LD50 at 336 h [23] was over 2000 mg/kg. For the same compound, the Activity (Rattus norvegicus [24]) was “Non-Toxic”, the Activity (Rattus norvegicus [25]) was “Non-Toxic” and the Activity (Rattus norvegicus [26]) was “Non-Toxic”. The Activity (Rattus norvegicus [27]) was “Non-Toxic”, the Activity (Rattus norvegicus [28]) was “Non-Toxic” and the Activity (Rattus norvegicus [29]) was “Non-Toxic”. The Activity (Rattus norvegicus [30]) was “Non-Toxic”, the Activity (Rattus norvegicus [31]) was “Non-Toxic” and the Activity (Rattus norvegicus [32]) was “Non-Toxic”. The Activity (Rattus norvegicus [33]) was “Non-Toxic”, the Activity (Rattus norvegicus [34]) was “Non-Toxic” and the Activity (Rattus norvegicus [35]) was “Non-Toxic”. The Activity (Rattus norvegicus [36]) was “Non-Toxic” and the Activity (Rattus norvegicus [37]) was “Non-Toxic”.
